Experimental data from ChEMBL document CHEMBL1131207, “Discovery and evaluation of a series of 3-acylindole imidazopyridine platelet-activating factor antagonists” (J Med Chem, 1998).
In brackets after ≈: the same amount, converted by molar mass.

Columns and labels:
[1] = The compound was evaluated for its solubility in lactate buffer at pH 3; format: ADME
Cavia porcellus [2] = experiment: The compound was evaluated for its PAF-induced vascular permeability in guinea pig when dosed intravenously; format: functional; details: iv
Cavia porcellus [3] = experiment: The compound was evaluated for its PAF-induced vascular permeability in guinea pig when dosed orally; format: functional; details: po
[4] = molecular target: Platelet-activating factor receptor (Homo sapiens, UniProt P25105); experiment: The compound was evaluated for its binding affinity against PAF receptor in human platelet
Rattus norvegicus [5] = experiment: The compound was evaluated for its PAF-induced vascular permeability in rat when dosed intravenously; format: functional; details: iv
Rattus norvegicus [6] = experiment: The compound was evaluated for its PAF-induced vascular permeability in rat when dosed orally; format: functional; details: po
[7] = The bioavailability in monkey was evaluated; format: ADME, organism-based; details: primates, in vivo
[8] = The bioavailability in rat was evaluated; format: ADME, organism-based; details: in vivo
[9] = The solubility in lactate buffer at pH 3 was evaluated; format: ADME
Cavia porcellus [10] = experiment: The compound was evaluated for PAF-induced vascular permeability in guinea pig when dosed intravenously; format: functional; details: iv
Cavia porcellus [11] = experiment: The compound was evaluated for PAF-induced vascular permeability in guinea pig when dosed orally; format: functional; details: po
[12] = molecular target: Platelet-activating factor receptor (Rattus norvegicus) (UniProt P46002); experiment: Ability to block the effect of exogenously administered PAF upon intravenous administration in PAF-induced rat skin permeability assay; format: functional, organism-based
[13] = molecular target: Platelet-activating factor receptor (Rattus norvegicus) (UniProt P46002); experiment: Tested in vivo for to block the effect of exogenously administered PAF upon oral administration in PAF-induced rat skin permeability assay; format: functional, organism-based
[14] = The compound was evaluated for its bioavailability in monkey; format: ADME, organism-based; details: primates, in vivo
[15] = The compound was evaluated for its bioavailability in rat; format: ADME, organism-based; details: in vivo

Sequence of Platelet-activating factor receptor (P25105 whole entry): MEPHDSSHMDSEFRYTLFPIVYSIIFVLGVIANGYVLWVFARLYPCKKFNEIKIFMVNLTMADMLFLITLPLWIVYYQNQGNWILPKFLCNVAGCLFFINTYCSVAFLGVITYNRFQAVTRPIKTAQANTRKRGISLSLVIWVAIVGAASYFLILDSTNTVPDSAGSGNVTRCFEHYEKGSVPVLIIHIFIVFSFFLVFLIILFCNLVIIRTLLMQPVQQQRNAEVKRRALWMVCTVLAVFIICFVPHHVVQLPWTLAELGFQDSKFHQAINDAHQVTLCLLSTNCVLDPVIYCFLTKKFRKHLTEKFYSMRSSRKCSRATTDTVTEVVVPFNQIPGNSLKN
Sequence of Platelet-activating factor receptor (Rattus norvegicus) (P46002 whole entry): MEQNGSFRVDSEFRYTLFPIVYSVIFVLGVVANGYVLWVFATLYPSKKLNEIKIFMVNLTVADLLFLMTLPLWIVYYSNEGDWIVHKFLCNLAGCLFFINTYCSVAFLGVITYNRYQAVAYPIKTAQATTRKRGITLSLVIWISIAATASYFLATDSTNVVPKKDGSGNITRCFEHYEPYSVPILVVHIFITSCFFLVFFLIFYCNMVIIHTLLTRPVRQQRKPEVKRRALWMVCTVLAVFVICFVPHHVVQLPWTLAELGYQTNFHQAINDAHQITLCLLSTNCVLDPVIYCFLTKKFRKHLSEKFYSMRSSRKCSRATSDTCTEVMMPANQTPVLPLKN

Structure (SMILES)	solubility [1]	ED50 (Cavia porcellus [2])	ED50 (Cavia porcellus [3])	Ki [4]	ED50 (Rattus norvegicus [5])	ED50 (Rattus norvegicus [6])	bioavailability [7]	bioavailability [8]	solubility [9]	ED50 (Cavia porcellus [10])	ED50 (Cavia porcellus [11])	ED50 [12]	ED50 [13]	bioavailability [14]	bioavailability [15]
CCOC(=O)[C@H](CC(C)C)N(C)S(=O)(=O)c1ccc(Cn2c(C)nc3cnccc32)cc1 [LEXIPAFANT]	> 20 mg/mL	0.027 mg/kg	10.3 mg/kg	380 pM	0.02 mg/kg	0.8 mg/kg									
C#Cc1cccc2c1c(C(=O)c1ccc(Cn3c(C)nc4cnccc43)c(F)c1)cn2C(=O)N(C)C				570 pM			56%	49%	> 20 mg/mL	0.016 mg/kg	0.29 mg/kg	0.003 mg/kg	0.094 mg/kg		
Cc1nc2cnccc2n1Cc1ccc(C(=O)c2cn(C(=O)N(C)C)c3cc(-c4ccc(F)cc4)ccc23)cc1	0.12 mg/mL (≈ 0.226 mM)					0.5 mg/kg						0.068 mg/kg			
CC(=O)OC[n+]1cccc([C@H]2SCc3c(C(=O)c4cn(C(=O)N(C)C)c5cc(-c6ccc(F)cc6)ccc45)ccn32)c1.[Cl-]		0.09 mg/kg	0.08 mg/kg	980 pM	0.006 mg/kg	0.08 mg/kg								36%	46%
